Patent US8058068B2, “Peptide-enhanced transfections” (Life Technologies Corporation, priority 1995, dated 2011)
Ends that are not written are not given here. Sp‑5‑CO = N-terminal spermine conjugate

Key:
NIH/3T3 cells = type: cell-based; conditions: peak activity
Description: Two versions of the Tat peptide were synthesized: one with the DNA-binding group carboxyspermine on the N-terminus and one without. The core TAT sequence employed was […] [SEQ ID NO:123]. The ability of the TAT peptide and the carboxyspermine-modified TAT peptide to enhance cationic lipid-mediated transfection was tested.
Transfection was performed in NIH/3T3 cells, in 24-well plates. Seeding density was 6×10^4 cells/well. For each condition, the standard PLUS protocol was used (see example 3) for complexing. All complexes were prepared in OptiMEM reduced serum media. Cells were harvested and assayed for β-galactosidase acivity in the soluble extracts by luminescent assay (see example 8). […] A clear enhancement is seen.

K562 cells = type: cell-based, human
Jurkat cells = type: cell-based, human
COS-7 cells = test: Dendrimer-mediated and Lipofectamine transfection +/- peptides, luciferase assay; type: cell-based; conditions: K16NLS (peak 2) 1, Sp-NLSNLS 1.5, NLS 20 μg/well
CHO-K1 cells [1] = test: Receptor-ligand proteins with Sp-NLSNLS in DNA pre-complexes, lipid transfection, β-galactosidase assay; conditions: DNA precomplexed with Sp-NLSNLS and the ligand protein(s)
Description: (§1) In separate experiments, CHO-K1 cells were seeded at 6×10^4 cells/well, and human fibroblasts were seeded at 8×10^4 cells/well in 24-well plates in DMEM supplemented with 10% fetal bovine serum and allowed to grow overnight.

Human fibroblasts [2] = test: as above
Description: as §1

Human fibroblasts [3] = type: cell-based
NIH3T3 cells = test: Transfection by polycationic lipid reagents other than DOSPA-DOPE +/- Sp-NLSNLS, b-galactosidase assay; type: cell-based; conditions: 24 h
Human fibroblasts [4] = test: as above; type: cell-based; conditions: 24 h
CHO-K1 cells [5] = test: as above; type: cell-based; conditions: 24 h
[6] = Transfection Agent Arg DMER 3 μg/well, chloroquine
[7] = Transfection Agent G7 (EDA) 3 μg/well, chloroquine
[8] = Transfection Agent G9 (EDA) 3 μg/well, chloroquine
[9] = Transfection Agent Lipofectamine 1 μL/well
[10] = Transfection Agent Lys DMER 3 μg/well, chloroquine
[11] = Transfection Agent “COMB BURST” 3 μg/well, chloroquine
[12] = “LIPOFECTIN”, DNA precomplexed with Sp-NLSNLS and the ligand protein(s)
[13] = polycationic lipid with DNA alone

Row | Substance | Enhancement-Fold (DMRIE-C transfections at peak activity) (K562 cells) [Fold] | Enhancement-Fold (DMRIE-C transfections at peak activity) (Jurkat cells) [Fold] | RLU (luciferase) (COS-7 cells; [6]) [RLU] | RLU (luciferase) (COS-7 cells; [7]) [RLU] | RLU (luciferase) (COS-7 cells; [8]) [RLU] | RLU (luciferase) (COS-7 cells; [9]) [RLU] | RLU (luciferase) (COS-7 cells; [10]) [RLU] | RLU (luciferase) (COS-7 cells; [11]) [RLU] | further results
1 | CGYGRKKRRQRRRG [TAT] |  |  |  |  |  |  |  |  | ng b-Gal per cm2 (NIH/3T3 cells): 0.1 ng b-Gal per cm2; ng b-Gal per ug Protein (NIH/3T3 cells): 0.00 ng b-Gal per ug Protein
2 | GLFEAIAEFIEGGWEGLIEG [E5, hemagglutinin peptide, modification of FluHa] | 3 | 1.2 |  |  |  |  |  |  | 
3 | GYGPKKKRKVGG [NLS, nuclear localization signal of SV40 large T antigen] |  |  | 84209 | 2749 | 1747 | 224029 | 17689 | 29639 | 
4 | Insulin: receptor-ligand protein |  |  |  |  |  |  |  |  | Peak activity (ng β-gal/cm^2) (CHO-K1 cells [1]; […]): 452 ng β-gal/cm^2; Peak activity (ng β-gal/cm^2) (CHO-K1 cells [1]; “LIPOFECTIN”): 31 ng β-gal/cm^2; Peak activity (ng β-gal/cm^2) (Human fibroblasts [2]; DMRIE-DOPE, DNA precomplexed with Sp-NLSNLS and the ligand protein): 20.7 ng β-gal/cm^2; Peak activity (ng β-gal/cm^2) (Human fibroblasts [2]; [12]): 22.7 ng β-gal/cm^2
5 | K16CGYGPKKKRKVGGGGRGDSP (KKKKKKKKKKKKKKKKGGCGYGPKKKRKVGGKFTIVF) [K16NLSRGD] | 1 | 1 |  |  |  |  |  |  | 
6 | K16GGCGYGPKKKRKVGG [K16NLS (peak 2)] | 1 | 1 | 63307 | 3423 | 2297 | 164105 | 20847 | 28562 | 
7 | Sp-5-CO-GGYGPKKKRKVGGGGYGPKKKRKVGG ({Sp‑5‑CO}-GGYGPKKKRKVGGGGYGPKKKRKVGG) [Sp-NLSNLS, the peptide NLSNLS conjugated to spermine] |  |  | 56548 | 2832 | 1702 | 200447 | 17203 | 23503 | Enhancement levels (β-galactosidase activity) (Human fibroblasts [3]): 5-8 fold
8 | Transferrin: receptor-ligand protein |  |  |  |  |  |  |  |  | Peak activity (ng β-gal/cm^2) (CHO-K1 cells [1]; […]): 433 ng β-gal/cm^2; Peak activity (ng β-gal/cm^2) (CHO-K1 cells [1]; “LIPOFECTIN”): 44 ng β-gal/cm^2; Peak activity (ng β-gal/cm^2) (Human fibroblasts [2]; […], DNA precomplexed with Sp-NLSNLS and the ligand protein(s)): 24.5 ng β-gal/cm^2; Peak activity (ng β-gal/cm^2) (Human fibroblasts [2]; [12]): 30.6 ng β-gal/cm^2
9 | sp-TAT: Tat peptide CGYGRKKRRQRRRG with the DNA-binding group carboxyspermine on the N-terminus (carboxyspermine-CGYGRKKRRQRRRG) |  |  |  |  |  |  |  |  | ng b-Gal per cm2 (NIH/3T3 cells): 0.06 ng b-Gal per cm2; ng b-Gal per ug Protein (NIH/3T3 cells): 0.00 ng b-Gal per ug Protein
10 | tetramethyldioleyl spermine [TMDOS] |  |  |  |  |  |  |  |  | Peak activity, Lipid + SpNLSNLS (NIH3T3 cells; DNA precomplexed to Sp-NLSNLS): 1.3 ng b-gal/cm^2; Peak activity, Lipid alone (NIH3T3 cells; [13]): 0.2 ng b-gal/cm^2; Peak activity, Lipid + SpNLSNLS (Human fibroblasts [4]; DNA precomplexed to Sp-NLSNLS): 0.1 ng b-gal/cm^2; Peak activity, Lipid alone (Human fibroblasts [4]; [13]): 0.01 ng b-gal/cm^2; Peak activity, Lipid + SpNLSNLS (CHO-K1 cells [5]; DNA precomplexed to Sp-NLSNLS): 2.9 ng b-gal/cm^2; Peak activity, Lipid alone (CHO-K1 cells [5]; [13]): 1.4 ng b-gal/cm^2
